These results are taken from ChEMBL document CHEMBL1154466, “3D and quantum QSAR of non-benzodiazepine compounds” (Eur J Med Chem, 2008).

SMILES strings stand for the structures. Where “and” joins values, the source holds several entries; their conditions need not be identical. Equal entries are not always repeated.

One assay is described as follows: Displacement of [3H]flunitrazepam from benzodiazepine receptor in rat forebrain.
As to `CCCCc1c(OC)nc2nc(C(=O)c3ccccc3)cn2c1CC`, the pIC50 was 7.469.
Regarding `CCCCc1cc(OC)nc2nc(C(=O)c3ccccc3)cn12`, the pIC50 is 6.469.
In the case of `CCc1cc(OC)nc2nc(C(=O)c3ccccc3)cn12`, the negative logarithm of the IC50 (pIC50) is reported as 6.53.
Compound `CCCc1c(SC)nc2nc(C(=O)c3ccccc3)cn2c1CC` returned a pIC50 of 7.328.
The same measure, in the same setting: the same measure for `CCc1c(SC)nc2nc(C(=O)c3ccccc3)cn2c1C`: 7.921; for `CCCc1c(OC)nc2nc(C(=O)c3ccccc3)cn2c1CC`: 7.469; for `CSc1cc(C)n2cc(C(=O)c3ccccc3)nc2n1`: 6.721.
On the same count and under the same terms, under `CCCc1c(OC)nc2nc(C(=O)c3ccccc3)cn2c1C` stands 7.071; under `COc1nc2nc(C(=O)c3ccccc3)cn2c(C)c1OC`, 6; under `CCc1cn2cc(C(=O)c3ccccc3)nc2nc1OC`, 5.824.
In turn, `C=CCc1c(SC)nc2nc(C(=O)c3ccccc3)cn2c1C` showed a negative-log IC50 (pIC50) of 8.097.
Still for that read-out and setting: under `CCCCc1c(OC)nc2nc(C(=O)c3ccccc3)cn2c1C` stands 7.377; under `CCc1c(OC)nc2nc(C(=O)c3ccccc3)cn2c1CC`, 6.971.
As to `CCCc1cc(OC)nc2nc(C(=O)c3ccccc3)cn12`, the pIC50 was determined as 6.272.
`COc1cc(C)n2cc(C(=O)c3ccccc3)nc2n1` came in with a pIC50 of 6.097.
In turn, `CCCc1cc(SC)nc2nc(C(=O)c3ccccc3)cn12` returned a pIC50 of 7.051.
In the case of `COc1nc2nc(C(=O)c3ccccc3)cn2c(C)c1CC1=CC1`, the negative logarithm of the IC50 (pIC50) was 7.523 and 7.347.
On the same count and under the same terms, the same measure for `CCc1c(CC2=CC2)c(OC)nc2nc(C(=O)c3ccccc3)cn12`: 7.377; for `CCc1c(OC)nc2nc(C(=O)c3ccccc3)cn2c1C` [DIVAPLON]: 7.252.

The nature of a further assay: Displacement of [3H]diazepam from benzodiazepine receptor in rat brain. It counts as tissue-based.
Compound `CN(C)c1ncnc2c1ncn2Cc1ccccc1Cl` registered a pIC50 of 4.89.
Same read-out and setting: under `CN(C)c1ncnc2c1nc(Br)n2Cc1cccc(NS(C)(=O)=O)c1` stands 5.82.
Compound `CN(C)c1ncnc2c1nc(O)n2Cc1cccc(NC=O)c1` had a pIC50 of 6.89.
`CNc1nc2c(N(C)C)ncnc2n1Cc1cccc(NC=O)c1` displayed a pIC50 of 6.44.
The same measure, in the same setting: the same measure for `CN(C)c1ncnc2c1nc(O)n2Cc1cccc(N)c1`: 5.74.
Still for that read-out and setting: under `CN(C)c1ncnc2c1nc(N(C)C)n2Cc1cccc(NC=O)c1` stands 6.96; under `CNc1nc2c(N(C)C)ncnc2n1Cc1ccccc1`, 4.77.
For `CN(C)c1ncnc2c1ncn2Cc1cccc(NC=O)c1`, the pIC50 is recorded as 7.47.
Still for that read-out and setting: under `CN(C)c1ncnc2c1nc(Cl)n2Cc1cccc(N)c1` stands 6.72.
Compound `COC(=O)Nc1cccc(Cn2c(Br)nc3c(N(C)C)ncnc32)c1` showed a pIC50 of 5.28.
Turning to `COc1nc2c(N(C)C)ncnc2n1Cc1cccc(N)c1`, the pIC50 was 6.
Still for that read-out and setting: the same measure for `CN(C)c1ncnc2c1nc(N(C)C)n2Cc1ccccc1`: 5.24.
The same measure, in the same setting: under `COc1nc2c(N(C)C)ncnc2n1Cc1ccccc1` stands 5.27; under `CC(C)(C)OC(=O)c1cc2c3ccccc3nc-2c[nH]1`, 8.
The compound `CNc1nc2c(N(C)C)ncnc2n1Cc1cccc(N)c1` registered a pIC50 of 5.14.
For the compound `c1ccc(COc2nccc3c2[nH]c2ccccc23)cc1`, the negative logarithm of the IC50 (pIC50) is recorded as 6.
On the same count and under the same terms, under `CCOC(=O)c1cc2c(cn1)[nH]c1ccccc12` stands 8.3; under `CCc1nc(C(=O)OC)cc2c1[nH]c1ccccc12`, 5.12.
The compound `CCC(C)Oc1nccc2c1[nH]c1ccccc12` (centres undefined) registered a negative-log IC50 (pIC50) of 6.33.
Turning to `CC(C)CCOc1nccc2c1[nH]c1ccccc12`, the pIC50 turned out to be 6.27.
`CC(C)Oc1cc2c(cn1)[nH]c1ccccc12` had a negative logarithm of the IC50 (pIC50) of 6.29.
On the same count and under the same terms, the same measure for `CCCCOc1cc2c(cn1)[nH]c1ccccc12`: 7.01; for `CC(C)(C)COc1nccc2c1[nH]c1ccccc12`: 7.02.
For the compound `COc1cc2c(cn1)[nH]c1ccccc12`, the negative logarithm of the IC50 (pIC50) worked out at 6.91.
Still for that read-out and setting: the same measure for `Clc1cc2c(cn1)[nH]c1ccccc12`: 7.35.
On the same count and under the same terms, under `CCOc1cc2c(cn1)[nH]c1ccccc12` stands 7.62; under `CCCOc1cc2c(cn1)[nH]c1ccccc12`, 7.96.
Turning to `CC(C)(C)C(=O)c1nccc2c1[nH]c1ccccc12`, the pIC50 is given as 6.45.
Same read-out and setting: the same measure for `CC(C)COc1nccc2c1[nH]c1ccccc12`: 7.03; for `CCCC(=O)c1cc2c(cn1)[nH]c1ccccc12`: 7.64; for `CCCCc1cc2c(cn1)[nH]c1ccccc12`: 6.64.
Same read-out and setting: under `O=[N+]([O-])c1cc2c3ccccc3nc-2c[nH]1` stands 6.9; under `CN(C)c1ncnc2c1nc(Br)n2Cc1cccc(NC=O)c1`, 7.96.
On the same count and under the same terms, the same measure for `CN(C)c1ncnc2c1nc(N(C)C)n2Cc1cccc(N)c1`: 6.22; for `Cc1nc2c(N(C)C)ncnc2n1Cc1ccccc1`: 5.07.
For `CN(C)c1ncnc2c1nc(Br)n2Cc1cccc(N)c1`, the pIC50 worked out at 6.96.
The same measure, in the same setting: under `CC(=O)Nc1cccc(Cn2c(Br)nc3c(N(C)C)ncnc32)c1` stands 6.08; under `CN(C)c1ncnc2c1nc(Br)n2Cc1ccccc1`, 5.52; under `CN(C)c1ncnc2c1nc(Br)n2Cc1cccc(NC(N)=O)c1`, 7.6.
As to `CN(C)c1ncnc2c1nc(Br)n2Cc1cccc(NC(=O)c2ccccc2)c1`, the negative logarithm of the IC50 (pIC50) is reported as 5.1.
The compound `CC(C)(C)COC(=O)c1cc2c3ccccc3nc-2c[nH]1` came in with a pIC50 of 6.12.
For `CN(C)c1ncnc2c1ncn2Cc1ccccc1`, the pIC50 is 4.89.
The same measure, in the same setting: the same measure for `CN(C)c1ncnc2c1ncn2Cc1ccccc1F`: 5.27; for `CN(C)c1ncnc2c1ncn2Cc1cccc(F)c1`: 5.14.
The same measure, in the same setting: the same measure for `CN(C)c1ncnc2c1ncn2Cc1cccc(O)c1`: 5.92.
`CN(C)c1ncnc2c1ncn2Cc1cccc(N)c1` gave a negative logarithm of the IC50 (pIC50) of 6.05.
In the case of `CC(=O)Oc1cccc(Cn2cnc3c(N(C)C)ncnc32)c1`, the pIC50 turned out to be 6.36.
Consider `CN(C)c1ncnc2c1ncn2Cc1cccc(OC(=O)C(C)(C)C)c1`, for which the pIC50 worked out at 5.8.
On the same count and under the same terms, under `COc1ccccc1Cn1cnc2c(N(C)C)ncnc21` stands 4.7.
Same read-out and setting: the same measure for `CN(C)c1ncnc2c1ncn2Cc1cccc(CO)c1`: 5.3.
In the case of `COC(=O)c1cc2c(cn1)[nH]c1ccccc12` [BETA-CCM], the pIC50 worked out at 8.3.
The compound `Cc1nccc2c1[nH]c1ccccc12` [HARMAN] had a pIC50 of 4.91.
`c1ccc2c(c1)[nH]c1cnccc12` [NORHARMANE]: the negative logarithm of the IC50 (pIC50) was found to be 5.79.

The nature of the next assay: Displacement of [3H]diazepam from benzodiazepine receptor.
`CCOC(=O)c1ncc2c(c1COC)-c1cc(O)ccc1C2` gave a pIC50 of 9.05.
With `CCCOc1cc2c(cn1)Cc1ccccc1-2`, the pIC50 stood at 7.96.
The same measure, in the same setting: under `Nc1cc2c(cn1)Cc1ccccc1-2` stands 4.6; under `Oc1cc2c(cn1)Cc1ccccc1-2`, 5.4.
The same measure, in the same setting: under `CCOC(=O)c1ncc2c(c1COC)-c1cc(OCc3ccccc3)ccc1C2C` (centres undefined) stands 6.02.
Turning to `Clc1cc2c(cn1)Cc1ccccc1-2`, the pIC50 was determined as 7.35.
On the same count and under the same terms, under `O=[N+]([O-])c1cc2c(cn1)Cc1ccccc1-2` stands 6.9; under `S=C=Nc1cc2c(cn1)Cc1ccccc1-2`, 8.1; under `CCOC(=O)c1ncc2c(c1CC)-c1cc(OCc3ccccc3)ccc1C2`, 7.66.
Still for that read-out and setting: under `CCOC(=O)c1cc2c(cn1)Cc1ccc(OCc3ccccc3)cc1-2` stands 8.05; under `CCOC(=O)c1ncc2c(c1COC)-c1cc(OCc3ccccc3)ccc1C2`, 9; under `COc1cc2c(cn1)Cc1ccccc1-2`, 6.91.
On to `CCOC(=O)c1ncc2c(c1COC)-c1cc(OC)ccc1C2`, for which the pIC50 is reported as 9.3.
On the same count and under the same terms, under `CCOC(=O)c1ncc2c(c1COC)-c1ccccc1C2` stands 8.64; under `CCOc1cc2c(cn1)Cc1ccccc1-2`, 7.62; under `COC(=O)c1cc2c(cn1)Cc1ccccc1-2`, 8.3.
Same read-out and setting: under `c1ccc2c(c1)Cc1cnccc1-2` stands 5.79.
